Source: ChEMBL document CHEMBL3351799, “Bioavailable pyrrolo-benzo-1,4-diazines as Na(v)1.7 sodium channel blockers for the treatment of pain” (Bioorg Med Chem Lett, 2014)

Experiments:
in vivo [1] = conditions: Sprague-Dawley, rat, plasma
in vivo [2] = conditions: Sprague-Dawley, rat, brain/plasma
[3] = Drug level in Sprague-Dawley rat brain after 6 hrs; type: ADME, tissue-based; conditions: read-out: Drug uptake

Kp at 6 h (in vivo [2]) | concentration at 6 h [3] [ng/g] | Structure (SMILES) | AUC at 6 h (in vivo [1]) [µM·h]
 |  | COc1ccc2c(c1)NC1(CCN(C(=O)c3cccc4ncccc34)CC1)c1cccn1-2 | 16.2
0.2 | 257 | COc1ccc2c(c1)NC1(CCN(C(=O)c3ccc(OC)c(N(C)C)c3)CC1)c1cccn1-2 | 20.3
